Results published in patent publication US11766414B2, “Compositions, delivery systems, and methods useful in tumor therapy” (Indi Molecular, Inc., priority 2020, dated 2023).
Blank lines part the entries; values can stand above or below the compound they belong to. Starred links: 1 amine or outer side, 2 acyl side, 3 side chain; linkers in the order of their positions; H or OH if unused. Positions of bridges follow the written chain, without caps; N, C: chain ends. Non-standard residues stand in square brackets, D forms with d. Residues, ends and D or L forms follow the SMILES beside them. Triazole bridges read from a SMILES are 1,4-linked. *: point of attachment. DOTA = O=C(O)CN1CCN(CC(=O)O)CCN(CC(=O)*)CCN(CC(=O)O)CC1; Pteroyl = Nc1nc2ncc(CNc3ccc(C(=O)*)cc3)nc2c(=O)[nH]1; Biotin = O=C1N[C@H]2[C@H](CS[C@H]2CCCCC(=O)*)N1; Lys(N3) = [N-]=[N+]=NCCCC[C@H](N)C(=O)O; γGlu = O=C(O)[C@H](CCC(=O)[*:2])N[*:1]; AEEEA = NCCOCCOCCOCC(=O)O; Pra = C#CC[C@H](N)C(=O)O

Assays:
[1] = in vivo; details: female, NSG, mouse, iv, total radioactivity
Procedure: (§1) Water and food were provided ad libitum. […] Tumor growth was monitored by caliper measurements.
CT scans were acquired for anatomical reference. Imaging was performed on a GENISYS^8 microPET/CT small animal scanner.
NSG mice were engrafted with OVCAR3 cells subcutaneously. […] Absorption of the radiotracer by highly perfused organs including the lungs indicate systemic circulation of the compound. Compound clearance is driven at the very early timepoints by a combination of hepatic and renal excretion. Over time, clearance is exclusively renal with retention of the compound in the tumor, and kidney.

[2] = system: OVCAR3 FOLR1+ cells (PC-3 FOLR1− cells as negative line); assay: Flow cytometry binding to FOLR1 (+) and FOLR1 (−) cell lines; type: cell-based, human; details: for binding selectivity for FOLR1 (+) cells over FOLR1 (−) cells: OVCAR3 vs PC-3, flow cytometry
Procedure: Both the kyeet (SEQ ID NO:9) and hshta (SEQ ID NO:6)-derived biligands were tested by flow cytometry for binding to FOLR1 (+) and FOLR1 (−) cell lines (FIGS. 6 and 7). The human ovarian adenocarcinoma-derived cell line OVCAR3 has robust FOLR1 expression and was selected as the FOLR1 (+) cell line. The human prostate adenocarcinoma-derived cell line PC-3 was selected as a FOLR1 (−) cell line.

[3] = biological target: T1, FOLR1 (Homo sapiens, UniProt P15328); assay: ELISA assay of FOLR1 binding; details: for EC50: read-out: EC50 (ELISA, FOLR1)
Excerpt: FIG. 5 is a diagram of ELISA assay of FOLR1 binding of heterobiligands.

[4] = system: OVCAR3 (FOLR1+) tumor bearing NSG mice; details: mouse, in vivo
Procedure: Female, 7-week-old NSG mice were housed under pathogen-free conditions. Water and food were provided ad libitum. To create mice with FOLR1+ ovarian xenograft tumors, mice were injected subcutaneously with OVCAR3 cells (1×10^7 cells per mouse) resuspended in 50% Matrigel in PBS into the shoulder region. Tumor growth was monitored by caliper measurements. OVCAR3 is a human ovarian adenocarcinoma known to over-express FOLR1.
^68Ga PET imaging was used to study in vivo biodistribution of heterobiligands in non-tumor bearing (healthy) mice and OVCAR3 tumor bearing mice. 100-200 μCi of [^68Ga]DOTA-labeled heterobiligand was administered intravenously (i.v.) via the tail vein of each mouse. […]
Evaluation of a folate-hshta (SEQ ID NO:6) Nterm heterobiligand bearing both an albumin binder and DOTA chelator in PET was a priority, given that DOTA can accommodate both ^68Ga for imaging and ^177Lu for radiotherapy. […] The time-course biodistribution of ^68Ga-labeled folate-hshta-PEG3-Lys(MPBA)-Lys(DOTA) (SEQ ID NO:6) (compound #2809) was calculated to quantify the uptake in major organs including the tumor (FIG. 17). […] Larger tumors (490 mm^3) were also evaluated with the ^68Ga-chelated PET probe.
Biodistribution was initially evaluated by PET imaging, as the time frame for a significant portion of clearance is roughly similar to the time frame of PET imaging experiments. […]

[5] = Maximum tolerated dose (MTD) tolerability study
Procedure: In order to establish a maximum tolerated dose (MTD), a tolerability study was undertaken testing increasing amounts of the 177-Lu heterobiligand 7327 (folate-hshta-Gly-Phe-Lys(DOTA)). Animals were monitored for signs of toxicity and weighed twice weekly. […] The second and third doses were administered 21 days following the previous dose.
Efforts were undertaken to evaluate 177-Lu 6305 (folate-hshta-Lys(MPBA)-Gly-Phe-Lys(DOTA)), a compound with a brush border cleavable linker in addition to an albumin binder. […] Two separate MTD experiments were undertaken. […] A second experiment interrogated lower doses.
In order to establish a MTD, dose range finding studies were undertaken testing increasing amounts of Indi ^177Lu-7327 in healthy, non-tumor bearing female NSG mice using IV administration (FIGS. 34 and 35). Mouse body weight and behavior were monitored. […] The second and third doses were administered 21 days following the previous dose.

[6] = system: OVCAR3 xenograft; assay: 177Lu FOLR1 radioligand therapy of OVCAR3 xenografts; type: in vivo, mouse
Procedure: as §1
OVCAR3 tumor bearing mice were used to study FOLR1-directed radioligand therapy (RLT) for treatment of ovarian cancer. Animals were administered a single dose of heterobiligand (vehicle control) or 111, 37, 18.5, 9.25, or 3.7 MBq [^177Lu]DOTA-labeled heterobiligand. Mice received the dose intravenously (i.v.) via the tail vein. To monitor the effect of the RLT, tumor size measurements were taken twice weekly and body weights were measured.
Single dose treatments at 18.5 MBq/nmol specific activity. OVCAR3 mouse model was used. 10^7 cell tumors were implanted in the mice one month before administration of ^177Lu-#6305. Five mice each were administered Cold #6305, 9.25 MBq Lu177-#6305, and 14.8 MBq Lu177-#6305, and two mice were administered 29.6 MBq Lu177-#6305. Tumor growth and body weight were then monitored.
Female NSG mice were implanted subcutaneously with OVCAR3 cells. Once tumors reached volumes of 200 mm^3, the animals were treated with 177-Lu 7327. Three treatment arms of 9.25 MBq, 14.8 MBq, and 29.6 MBq were studied.

[7] = biological target: T1, FOLR1; assay: Folic acid competition ELISA; type: binding
Procedure: A competition experiment was conducted to further understand the binding kinetics of the lead heterobiligand (folate-hshta (SEQ ID NO:6) Nterm heterobiligand).

[8] = system: OVCAR3 xenograft; assay: 177Lu FOLR1 radioligand therapy of OVCAR3 xenografts; type: in vivo, mouse; remark: listed apart in the source

T1 sequence (P15328 25-234): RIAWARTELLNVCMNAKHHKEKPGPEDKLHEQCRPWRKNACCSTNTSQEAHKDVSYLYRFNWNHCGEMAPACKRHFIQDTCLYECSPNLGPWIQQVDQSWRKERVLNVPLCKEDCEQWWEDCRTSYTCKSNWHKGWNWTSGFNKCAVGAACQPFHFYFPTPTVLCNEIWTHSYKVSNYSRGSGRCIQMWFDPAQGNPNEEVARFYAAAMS

Compound: C[C@H](O)[C@H]1NC(=O)[C@@H](Cc2cnc[nH]2)NC(=O)[C@@H](CO)NC(=O)[C@@H](Cc2cnc[nH]2)NC(=O)[C@@H](NC(=O)CC[C@H](NC(=O)c2ccc(NCc3cnc4nc(N)[nH]c(=O)c4n3)cc2)C(=O)O)Cc2cn(nn2)CCCC[C@@H](C(=O)NCCOCCOCCOCC(=O)N[C@@H](CCCCNC(=O)CO/N=C/c2ccc([18F])cc2)C(N)=O)NC(=O)[C@@H](C)NC1=O
- tissue uptake per volume at 4 h ([1]; accumulation in the tumor): ~4 %ID/mL
- tissue uptake per volume at 4 h ([1]; radiotracer accumulation in the tumor): 3.5 to 5.5 %ID/mL

- EC50 [3]: 0.28 nM
Compound: C[C@H](O)[C@H]1NC(=O)[C@@H](Cc2ccc(O)cc2)NC(=O)[C@@H](CCCNC(=N)N)NC(=O)[C@@H](CCC(=O)O)NC(=O)[C@@H](CC(=O)O)NC(=O)[C@@H](NC(=O)[C@H](Cc2cn(CCOCCOCCOCCNC(=O)CC[C@H](NC(=O)c3ccc(NCc4cnc5nc(N)[nH]c(=O)c5n4)cc3)C(=O)O)nn2)NC(=O)CCOCCOCCOCCOCCOCCOCCOCCOCCOCCOCCNC(=O)CCOCCOCCOCCOCCOCCOCCOCCOCCOCCOCCNC(=O)CCCC[C@@H]2SC[C@@H]3NC(=O)N[C@@H]32)Cc2cn(nn2)CCCC[C@@H](C(N)=O)NC1=O [Folate-deryt]
- binding selectivity for FOLR1 (+) cells over FOLR1 (−) cells [2]: excellent selectivity

Compound: C[C@H](O)[C@H]1NC(=O)[C@@H](Cc2cnc[nH]2)NC(=O)[C@@H](CO)NC(=O)[C@@H](Cc2cnc[nH]2)NC(=O)[C@@H](NC(=O)CC[C@H](NC(=O)c2ccc(NCc3cnc4nc(N)[nH]c(=O)c4n3)cc2)C(=O)O)Cc2cn(nn2)CCCC[C@@H](C(=O)NCC(=O)N[C@@H](Cc2ccccc2)C(=O)N[C@@H](CCCCNC(=O)CN2CCN(CC(=O)O)CCN(CC(=O)O)CCN(CC(=O)O)CC2)C(=O)O)NC(=O)[C@@H](C)NC1=O [Indi ^68Ga-7327, metal not drawn] ({Pteroyl-γGlu}-[Pra][dH][dS][dH][dT][dA][Lys(N3)]GFK(DOTA)-OH; triazole 1-7)
- kidney uptake (PET) [4]: significant reduction in kidney uptake

- EC50 [3]: 0.107 nM
Compound: C[C@H](O)[C@H]1NC(=O)[C@@H](Cc2c[nH]cn2)NC(=O)[C@@H](CO)NC(=O)[C@@H](Cc2c[nH]cn2)NC(=O)[C@@H](NC(=O)[C@H](Cc2cn(CCOCCOCCOCCNC(=O)CC[C@H](NC(=O)c3ccc(NCc4cnc5nc(N)[nH]c(=O)c5n4)cc3)C(=O)O)nn2)NC(=O)CCOCCOCCOCCOCCOCCOCCOCCOCCOCCOCCNC(=O)CCOCCOCCOCCOCCOCCOCCOCCOCCOCCOCCNC(=O)CCCC[C@@H]2SC[C@@H]3NC(=O)N[C@@H]32)Cc2cn(nn2)CCCC[C@@H](C(N)=O)NC(=O)[C@@H](C)NC1=O [Tz heterobiligand]
- binding selectivity for FOLR1 (+) cells over FOLR1 (−) cells [2]: high selectivity

- EC50 [3]: 0.149 nM
Compound: C[C@H](O)[C@H]1NC(=O)[C@@H](CCC(=O)O)NC(=O)[C@@H](CCC(=O)O)NC(=O)[C@@H](Cc2ccc(O)cc2)NC(=O)[C@@H](CCCCN)NC(=O)[C@@H](NC(=O)[C@H](Cc2cn(CCOCCOCCOCCNC(=O)CC[C@H](NC(=O)c3ccc(NCc4cnc5nc(N)[nH]c(=O)c5n4)cc3)C(=O)O)nn2)NC(=O)CCOCCOCCOCCOCCOCCOCCOCCOCCOCCOCCNC(=O)CCOCCOCCOCCOCCOCCOCCOCCOCCOCCOCCNC(=O)CCCC[C@@H]2SC[C@@H]3NC(=O)N[C@@H]32)Cc2cn(nn2)CCCC[C@@H](C(N)=O)NC1=O [folate-kyeet heterobiligand]
- binding selectivity for FOLR1 (+) cells ([2]; 40 nM of the test article): Virtually complete selectivity
- binding selectivity for FOLR1 (+) cells over FOLR1 (−) cells [2]: high selectivity

- affinity for recombinant human FOLR protein in ELISA ([3]; tested alone): low micromolar affinity
Compound: C[C@H](O)[C@H]1NC(=O)[C@@H](Cc2c[nH]cn2)NC(=O)[C@@H](CO)NC(=O)[C@@H](Cc2c[nH]cn2)NC(=O)[C@@H](NC(=O)COCCOCCOCCNC(=O)CCCC[C@@H]2SC[C@@H]3NC(=O)N[C@@H]32)Cc2cn(nn2)CCCC[C@@H](C(N)=O)NC(=O)[C@@H](C)NC1=O [hshta] ({Biotin-AEEEA}-[Pra][dH][dS][dH][dT][dA][Lys(N3)]-NH2; triazole 1-7)
- binding selectivity for FOLR1 (+) cells over FOLR1 (−) cells [2]: higher selectivity for FOLR1 than kyeet

Compound: Folate-hshta-G-F-K(^177Lu-DOTA)-OH [^177Lu-#7327]
- tolerability ([5]; doses of 111 MBq and 185 MBq): not tolerated
- tolerability ([5]; doses of 111 MBq and 185 MBq, listed as Indi ^177Lu-7327): lost substantial body weight
- tolerability ([5]; repeated doses of 14.8, 22.2, 29.6, and 37 MBq, 21 days apart): well tolerated
- tolerated radioactive doses ([5]; three treatments, healthy non-tumor bearing female NSG mice): up to 111 MBq
- caliper-measured tumor volume ([6]; 29.6 MBq arm, following the second dose): stabilized and then fell
- time to statistically significant differential between treated and untreated ([6]; 29.6 MBq arm, p≤0.05): 12 days post injection
- loss of body weight ([6]; 29.6 MBq dose, two doses): 5-10%
- body weights of treated mice ([6]; (+/−10%)): normal body weights
- tumor response ([6]; two treatments at 29.6 MBq followed by a third treatment at 74 MBq): Tumor regression
- outcompeting native folate for receptor binding [7]: approximately 500 fold
- body weight loss after second dose ([8]; 9.25 MBq and 14.8 MBq arms, second dose 21 days after first): minimal
- tolerability of first dose ([8]; 9.25 MBq, 14.8 MBq, and 29.6 MBq arms): well tolerated
- tumor sizes after additional treatment on day 24 ([8]; 46.3, 74 and 148 MBq groups): shrinking tumor sizes
- tumor volumes ([8]; 46.3 MBq group, elevated dose): stable tumor volumes
- decrease of tumor volumes, on average ([8]; 74 MBq and 148 MBq arms, single elevated dose at 45 days post injection): 50%
- body weight ([8]; 74 MBq and 148 MBq, elevated dose): modest body weight loss
- time to statistically significant differential between treated and control ([8]; 74 MBq arm): 24 days post-injection
- body weight after second dose ([8]; highest dose (29.6 MBq)): modest loss of body weight that stabilized and then rebounded
- tumor volume ([8]; two doses at 74 MBq, 21 days apart, vs 0 MBq control): decrease in tumor volume
- tumor volume ([8]; two doses, arms of 9.25, 14.8, and 29.6 MBq): dose dependent decrease in tumor volume
- tumor response ([8]; two treatments at 29.6 MBq): tumor stasis
- tumor response ([8]; two treatments at 74 MBq): Tumor stasis
